Source: publication PMC12735718, “Novel Adamantane–Sclareol Hybrids Exploit ROS Vulnerability to Overcome Multidrug-Resistance in Glioblastoma Cells” (Molecules, 2025)

Legend:
[1] = tested on: TrxR1 protein in U87 cells; test: TrxR1 protein expression by flow cytometry, U87; type: cell-based, human; conditions: U87, 4 µM, 48 h
Experimental: Flow cytometry was used to assess TrxR1 and ASK1 protein expression in the U87 and U87-TxR cell lines. Cells were seeded and allowed to attach overnight before exposure to compounds 2 and 5 at final concentrations of 2 μM and 4 μM. After 48 h treatment, cells were collected by trypsinization, rinsed with PBS, and subsequently fixed in 4% PFA for 10 min at room temperature. For permeabilization, ice-cold absolute methanol was added, and the samples were maintained at −20 °C overnight. Following this step, cells were washed in PBS and incubated for 1 h in 0.5% BSA/PBS to block nonspecific binding. Pelleted cells were then resuspended in primary antibodies diluted in 0.5% BSA/PBS [(ASK1, 1:200 (ab45178, Abcam, Cambridge, UK); TrxR1, 1:500 (ab124954, Abcam, Cambridge, UK)] and incubated overnight at +4 °C. Cells were then washed in PBS and incubated for 1 h at room temperature in the dark with fluorescently labeled anti-rabbit IgG secondary antibody (Alexa Fluor 488, ab150097, Abcam, Cambridge, UK), diluted 1:1000 in 0.5% BSA/PBS. Following incubation, samples were washed, resuspended in cold PBS, and analyzed by flow cytometry. A minimum of 10,000 events per sample were acquired, and fluorescence was detected in a green fluorescence channel (525 nm). Data acquisition and processing were performed using CytExpert software (version 2.4.0.28; Beckman Coulter, Indianapolis, IN, USA).

[2] = tested on: subcutaneous xenografts of U87 cells; test: Preliminary efficacy study, subcutaneous U87 xenografts; type: in vivo; conditions: 7 mg/kg, administered twice i.p.
Experimental: (§1) Male immunodeficient mice (Rag1^−/−), aged 4–8 weeks, were used for xenograft studies. A total of 1 × 10^6 U87 cells were injected subcutaneously into the rear axillary region to establish solid tumors. […] Maximum tolerated dose (MTD) testing for 5 was performed in 6- to 8-week-old male Rag1 mice using two animals per dose group. Compound 5 was administered i.p. at doses of 7 mg/kg, 12.5 mg/kg, 25 mg/kg, 50 mg/kg, 100 mg/kg, and 200 mg/kg. The carrier consisted of 10% (v/v) DMSO with 5% (v/v) Tween-80 and was diluted in 0.9% (w/v) NaCl. Animals were monitored for weight loss, changes in feeding or neurological signs, and any morbidity to identify the highest non-toxic dose. For efficacy studies, Rag1 mice were inoculated subcutaneously with 1 × 10^6 cells (mean starting weight ≈ 20 g); animals were then randomized into treatment groups. The compound 5 group (n = 5) received 7 mg/kg i.p. (two injections during the study period). Comparator groups included carrier control (n = 5). Compound 5 was formulated in the vehicle described above. The study was terminated when tumors in untreated mice reached approximately 11% of body weight. At termination, animals were euthanized and tumors were excised. Tumor volumes and body weights were recorded throughout the experiment and used to assess efficacy and tolerability.

[3] = Maximum tolerated dose testing; conditions: Rag1-/- (immunodeficient), mouse, in vivo, ip, male Rag1 mice; read-out: maximal tolerated dose (MTD)
Experimental: as §1

Row | Compound | TrxR1 levels [1] | Body weight [2] | tumor growth ([2]; over 12 days) | MTD [3]
1 | CC1(C)CCC[C@]2(C)[C@@H](CC[C@@](C)(O)/C=C/c3ccc(CNCCCCCCCCNCC45CC6CC(CC(C6)C4)C5)s3)[C@](C)(O)CC[C@@H]12 [Compound 2] | slight increase |  |  | 
2 | CC1(C)CCC[C@]2(C)[C@@H](CC[C@@](C)(O)/C=C/c3ccc(CNCCCCCCCCNCC45CC6CC(CC(C6)C4)C5)o3)[C@](C)(O)CC[C@@H]12 [Compound 5] |  | not adversely affected | strongly inhibits tumor growth | 25 mg/kg
